The values below come from article PMC3652819, “A Cocoa Peptide Protects Caenorhabditis elegans from Oxidative Stress and β-Amyloid Peptide Toxicity” (PLoS ONE, 2013).

Residues, ends and D or L forms follow the SMILES beside them. No end group written: not given here. *: point of attachment. Cbz = O=C(OCc1ccccc1)* Some results are limits rather than exact numbers.

The test system of assay [1] is C. elegans strain CL4176 (Aβ1–42). As to the kind of experiment: body paralysis assay in transgenic C. elegans CL4176 expressing human Aβ1-42. The format is in vivo, Caenorhabditis elegans. Particulars: for Mid Paralysis (h), time when 50% of worms were paralyzed / % of worms non paralyzed at onset of paralysis / Onset Paralysis, time: peptides 1 µg/mL, ZPP 1 µM, “Barquillo” 10 µL/mL, fractions 10 µL/mL; for Mid Paralysis (h), time when 50% of worms were paralyzed: NGM 47 h; for % of worms non paralyzed at onset of paralysis: at the onset time, NGM 85.8%; for Onset Paralysis, time: time after Aβ42 induction, NGM 41 h; for effect on body paralysis (in words): compared with NGM controls. Here is the method: Mutant strain GR1321 (tph-1(mg280)) was used in body fat reduction experiments. All the strains were obtained from the Caenorhabditis Genetics Center (University of Minnesota). Caenorhabditis elegans N2 and tph-1 were routinely propagated on Nematode Growth Medium (NGM) plates with Escherichia coli strain OP50 as a food source at 20°C, while CL4176 was maintained at 16°C. Worms were synchronized by isolating eggs from gravid adults at 20°C (N2 and tph-1) or 16°C (CL4176), and eggs were hatched overnight in NGM plates. In the experiments, the worms were fed with the different compounds from egg through to adult stages, and transferred to new plates every two days. […] ZPP (1 µM) was used as an internal positive control. Transgene expression was induced by up-shifting the temperature from 16°C to 25°C, starting 24 h after egg lying and maintained for 24 h. Then worms were incubated at 20°C until all the worms in the experiment became paralyzed. […] Paralysis in induced worms was compared with non-induced worms (maintained at 16°C until the end of the paralysis assay). Experiments were carried out in triplicate.

The subject of a further assay is Aβ42. The conditions noted are these: C. elegans; ref [36], [37]; cited from earlier work. The text has this: (§1) This could be explained by the release of bioactive peptides from the protein fraction of the by-product.
Assay [2] relates to C. elegans strain CL4176 (Aβ1–42). Particulars: ref [36], [37]; cited from earlier work.
Description: as §1

Assay [3] addresses T1, prolyl endopeptidase (PEP) (Elizabethkingia meningoseptica, UniProt P27028).
T1 construct: purchased Seikagaku Corporation, Tokyo, Japan
In words: biochemical. Here is the method:
Prolyl endopeptidase (PEP) activity was determined using a previously described method. Reaction was performed by addition of 0.1 U/ml of PEP (Seikagaku Corporation, Tokyo, Japan) to a 100 mM phosphate buffer pH 7 containing 2 mM of Z-Gly-Pro-p-nitroaniline (Sigma, Madrid, Spain). Samples were incubated for 20 min at 30°C and then the reaction was stopped by adding a volume of 10.5% Triton X-100 in 1 M sodium acetate buffer pH 4. The amount of ρ-nitroaniline released was quantified by spectrophotometry at 410 nm. The inhibitory activity of PEP was determined by adding 100 µl of each sample obtained during the purification process to the enzymatic reaction. Z-Prolyl-Prolinal (ZPP) (0.000426 ppm, Biomol, Plymouth Meeting, USA) was used as positive control of inhibition.

Assay [4] has as its system C. elegans wild-type strain N2. In words: survival of wild-type C. elegans N2 after H2O2-induced oxidative stress. Type of assay: in vivo, Caenorhabditis elegans. The conditions noted are these: compared with NGM. Here is the method: Experiments of oxidative stress, body fat reduction and microarrays were carried out with the wild-type strain N2 (Bristol). Paralysis assays were performed with the transgenic strain CL4176 (smg-1^ts [pAF29(myo-3/Aβ1–42/let UTR)+pRF4(rol-6(su10069))]). Paralysis is induced in strain CL4176 by expression of a muscle-specific Aβ1–42, which depends on up-shifting temperature from 16 to 25°C [21], [22]. Mutant strain GR1321 (tph-1(mg280)) was used in body fat reduction experiments. All the strains were obtained from the Caenorhabditis Genetics Center (University of Minnesota).
Caenorhabditis elegans N2 and tph-1 were routinely propagated on Nematode Growth Medium (NGM) plates with Escherichia coli strain OP50 as a food source at 20°C, while CL4176 was maintained at 16°C. Worms were synchronized by isolating eggs from gravid adults at 20°C (N2 and tph-1) or 16°C (CL4176), and eggs were hatched overnight in NGM plates. In the experiments, the worms were fed with the different compounds from egg through to adult stages, and transferred to new plates every two days. […]
Viability of C. elegans was assessed after oxidative stress and differences between nematodes cultured in control and treatment conditions were evaluated by means of one-way analysis of variance (ANOVA) using Statgraphics plus (version 5.1) software (Manugistics, Rockville, MD).

T1 sequence (P27028 21-705): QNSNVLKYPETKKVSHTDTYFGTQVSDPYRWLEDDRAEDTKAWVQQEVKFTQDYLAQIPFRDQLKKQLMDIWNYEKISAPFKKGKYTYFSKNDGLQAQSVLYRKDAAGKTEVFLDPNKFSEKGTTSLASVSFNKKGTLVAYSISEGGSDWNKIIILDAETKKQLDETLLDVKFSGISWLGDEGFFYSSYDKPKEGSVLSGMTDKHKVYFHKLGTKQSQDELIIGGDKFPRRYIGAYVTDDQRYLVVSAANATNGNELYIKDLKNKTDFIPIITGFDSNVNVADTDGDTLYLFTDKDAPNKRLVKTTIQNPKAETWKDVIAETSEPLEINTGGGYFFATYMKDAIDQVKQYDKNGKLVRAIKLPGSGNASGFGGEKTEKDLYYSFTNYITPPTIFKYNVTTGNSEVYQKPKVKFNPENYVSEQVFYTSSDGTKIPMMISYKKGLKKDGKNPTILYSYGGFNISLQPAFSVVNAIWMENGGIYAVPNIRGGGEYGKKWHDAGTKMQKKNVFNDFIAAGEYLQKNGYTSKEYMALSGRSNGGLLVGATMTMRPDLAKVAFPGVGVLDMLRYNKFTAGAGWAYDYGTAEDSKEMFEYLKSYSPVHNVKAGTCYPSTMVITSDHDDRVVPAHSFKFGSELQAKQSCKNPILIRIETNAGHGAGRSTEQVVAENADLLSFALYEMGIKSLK

In the case of `O=C[C@@H]1CCCN1C(=O)[C@@H]1CCCN1C(=O)OCc1ccccc1` [ZPP, Z-Prolyl-Prolinal, reference compound] (Cbz-Pro-Pro-aldehyde), in assay [1], the “Mid Paralysis (h), time when 50% of worms were paralyzed” value was more than 49 h; the “% of worms non paralyzed at onset of paralysis” value (“% of worms non paralyzed” for short) turned out to be 96.7%; the “Onset Paralysis, time” value came out at 41 h.
Consider `COC(=O)[C@H]1[C@H]2C[C@@H]3c4[nH]c5cc(OC)ccc5c4CCN3C[C@H]2C[C@@H](OC(=O)c2cc(OC)c(OC)c(OC)c2)[C@@H]1OC` [reserpine], for which the “effect on Aβ peptide expression levels (in words)” value with Aβ42 is on record as “no effects were observed in Aβ peptide expression levels”. Moreover, the “effect on paralysis (in words)” value in assay [2] was “effect on delaying paralysis”.
DNYDNSAGKWWVT [13L, DNYDNSAGKWWVT] had an IC50 in assay [3] of 122 µM.
Consider GVKGEPGPNTL [11R, GVKGEPGPNTL], for which, in assay [1], the “effect on body paralysis (in words)” value was “ability to ameliorate Aβ-induced paralysis”; the “Mid Paralysis (h), time when 50% of worms were paralyzed” value was 49 h; the “% of worms non paralyzed” value came out at 89.9%; the “Onset Paralysis, time” value is recorded as 41 h. For the same compound, the “effect on worm survival after oxidative stress (in words)” value in assay [4] was “significant protection upon oxidative stress”.
The compound NYDNSAGKW [9L, NYDNSAGKW] showed a 50% inhibitory concentration (IC50) in assay [3] of 484 µM.
Consider “TDGVKGEPGPNTL [13R, synthesized peptide from the 21 kDa seed protein of Theobroma cacao]”, for which, in assay [1], the “effect on body paralysis (in words)” value is listed as “ability to ameliorate Aβ-induced paralysis”; the “Mid Paralysis (h), time when 50% of worms were paralyzed” value is 49 h; the “% of worms non paralyzed” value was 83.4%; the “Onset Paralysis, time” value is 41 h. In addition, the “inhibitory activity (IC50) against PEP enzyme” value in assay [3] (synthetic peptides, 0.1 U/ml PEP, 2 mM Z-Gly-Pro-p-nitroaniline, pH 7, 20 min at 30°C, 410 nm) was more than 1480 µg/mL. Besides, the “effect on worm survival after oxidative stress (in words)” value in assay [4] is “did not produce a significant effect on worm survival rates”.

Broadly, the IC50 is the concentration that inhibits the measured activity by half. Read a high IC50 as weaker potency.
